Seven molecules from PubChem BioAssay AID1963862 (Molecular Pharmacology Branch, DTP, NCI, 2024) can be followed below.

“And” between values parts separate entries of the source, which are not always exact repeats. Equal values may be shown once. The source made the active and inactive calls. The calls were made as follows: active = viability on the fitted dose curve at most 10% of control; inactive = the rest.

The experiment deals with KRAS patient-derived spheroids with HUVEC/MSC, viability. The experiment can be described thus: Anticancer human tumor 941728-121-R-J1-PDC patient-derived lung adenocarcinoma cell line growth inhibition [KRAS2]. The conditions noted are these: for viability, T/C: stronger effect = lower value. The procedure, abridged:
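Combination screen of spheroid viability in tumor-cell co-cultures with endothelial (HUVEC) and mesenchymal stem cell stroma. Each agent was tested in half-log dilutions, topping at clinical Cmax or at 10 microM without a known Cmax.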

Where [1] appears, read: curve of first compound, second compound 0.1 µM.
Where [2] appears, read: curve of first compound, second compound 0.316 µM.
Setting [3] is: curve of first compound, second compound 1 µM.
The mark [4] stands for this setting: curve of first compound, second compound 3.16 µM.
[5] abbreviates: curve of first compound, second compound 10 µM.
Where [6] appears, read: second compound 0.1 µM, first compound 0.01 µM.
Where [7] appears, read: second compound 0.1 µM, first compound 0.0316 µM.
Setting [8] is: second compound 0.1 µM, first compound 0.1 µM.
Where [9] appears, read: second compound 0.1 µM, first compound 0.316 µM.
The mark [10] stands for this setting: second compound 0.1 µM, first compound 1 µM.
[11] abbreviates: second compound 0.316 µM, first compound 0.01 µM.
[12] abbreviates: second compound 0.316 µM, first compound 0.0316 µM.
Where [13] appears, read: second compound 0.316 µM, first compound 0.1 µM.
[14] abbreviates: second compound 0.316 µM, first compound 0.316 µM.
Setting [15] is: second compound 0.316 µM, first compound 1 µM.
The mark [16] stands for this setting: second compound 1 µM, first compound 0.01 µM.
The mark [17] stands for this setting: second compound 1 µM, first compound 0.0316 µM.
The mark [18] stands for this setting: second compound 1 µM, first compound 0.1 µM.
[19] abbreviates: second compound 1 µM, first compound 0.316 µM.
Setting [20] is: second compound 1 µM, first compound 1 µM.
Where [21] appears, read: second compound 3.16 µM, first compound 0.01 µM.
Where [22] appears, read: second compound 3.16 µM, first compound 0.0316 µM.
Where [23] appears, read: second compound 3.16 µM, first compound 0.1 µM.
Where [24] appears, read: second compound 3.16 µM, first compound 0.316 µM.
The mark [25] stands for this setting: second compound 3.16 µM, first compound 1 µM.
The mark [26] stands for this setting: second compound 10 µM, first compound 0.01 µM.
The mark [27] stands for this setting: second compound 10 µM, first compound 0.0316 µM.
[28] abbreviates: second compound 10 µM, first compound 0.1 µM.
The mark [29] stands for this setting: second compound 10 µM, first compound 0.316 µM.
Where [30] appears, read: second compound 10 µM, first compound 1 µM.
[31] abbreviates: second compound 0.1 µM, first compound 3.16 µM.
The mark [32] stands for this setting: second compound 0.316 µM, first compound 3.16 µM.
[33] abbreviates: second compound 1 µM, first compound 3.16 µM.
Setting [34] is: second compound 3.16 µM, first compound 3.16 µM.
Setting [35] is: second compound 10 µM, first compound 3.16 µM.
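For IC50 in this document: spheroids exposed to agents for seven days before readout.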
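For viability, T/C in this document: spheroids exposed to agents for seven days before readout.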

The term viability, T/C denotes the result in the treated group divided by that in the control group, in per cent. `CCNC(=O)CC1N=C(c2ccc(Cl)cc2)c2cc(OC)ccc2-n2c(C)nnc21` (stereo unspecified): the viability, T/C is, setting by setting: (compound 0.0316 µM) 94% [middle of 5 runs]; (compound 0.316 µM) 61.8% [middle of 5 runs].
For orientation: IC50 means the concentration at which inhibition is half-maximal. In the case of `CCN1CCN(Cc2ccc(Nc3ncc(F)c(-c4cc(F)c5nc(C)n(C(C)C)c5c4)n3)nc2)CC1` + CNCc1ccccc1-c1csc(C(C)Nc2nc(C)nc3cc(OC)c(OC)cc23)c1, the IC50 by setting is: under setting [1], 0.00614 µM; under setting [2], under 0.00316 µM; under setting [3], under 0.00316 µM; under setting [4], under 0.00316 µM; under setting [5], under 0.00316 µM. For the same molecule, the viability, T/C is 58.2% (second compound 0.1 µM, first compound 0.00316 µM); 43.9% under setting [6]; 40% under setting [7]; 43.7% under setting [8]; 38.4% under setting [9]; 53% under setting [10]. Further, the viability, T/C is, setting by setting: (second compound 0.316 µM, first compound 0.00316 µM) 44%; under setting [11], 38.5%; under setting [12], 31%; under setting [13], 28.9%; under setting [14], 30.6%; under setting [15], 46.8%. Also, the viability, T/C was 22.1% (second compound 1 µM, first compound 0.00316 µM); 25.4% under setting [16]; 18.7% under setting [17]; 17.1% under setting [18]; 16.9% under setting [19]; 5.4% under setting [20]. Further, the viability, T/C (second compound 3.16 µM, first compound 0.00316 µM) is 1.35%; the viability, T/C under setting [21] was 1.57%; the viability, T/C under setting [22] is 1.42%; the viability, T/C under setting [23] is 2.24%; the viability, T/C under setting [24] is 0.67%; the viability, T/C under setting [25] is 2.46%. The viability, T/C was 0.72% (second compound 10 µM, first compound 0.00316 µM); 0.55% under setting [26]; 0.84% under setting [27]; 0.24% under setting [28]; 0.74% under setting [29]; 0.15% under setting [30].
Regarding `CC(=O)OC12COC1CC(O)C1(C)C(=O)C(O)C3=C(C)C(OC(=O)C(O)C(NC(=O)OC(C)(C)C)c4ccccc4)CC(O)(C(OC(=O)c4ccccc4)C21)C3(C)C` (stereo unspecified) + CNCc1ccccc1-c1csc(C(C)Nc2nc(C)nc3cc(OC)c(OC)cc23)c1, the IC50 is under 0.01 µM under setting [1]; under 0.01 µM under setting [2]; under 0.01 µM under setting [3]; under 0.01 µM under setting [4]; under 0.01 µM under setting [5]. The viability, T/C is 35.7% under setting [6]; 37.4% under setting [7]; 32% under setting [8]; 38.3% under setting [9]; 34.3% under setting [10]; 41.8% under setting [31]. The viability, T/C reads like this: under setting [11], 28%; under setting [12], 28%; under setting [13], 27%; under setting [14], 25.9%; under setting [15], 29.3%; under setting [32], 30.2%. In addition, the viability, T/C is 29.2% under setting [16]; 34.3% under setting [17]; 34.5% under setting [18]; 36% under setting [19]; 38% under setting [20]; 33% under setting [33]. The viability, T/C was 18.7% under setting [21]; 0.11% under setting [22]; 0.09% under setting [23]; 0.11% under setting [24]; 0.1% under setting [25]; 31.5% under setting [34]. Further, the viability, T/C by setting is: under setting [26], 0.14%; under setting [27], 0.09%; under setting [28], 0.1%; under setting [29], 0.13%; under setting [30], 28.4%; under setting [35], 0.21%.
Take `CC1(C)CCC(CN2CCN(c3ccc(C(=O)NS(=O)(=O)c4ccc(NCC5CCOCC5)c([N+](=O)[O-])c4)c(Oc4cnc5[nH]ccc5c4)c3)CC2)=C(c2ccc(Cl)cc2)C1` + CC1OCC2(CCN(c3cnc(Sc4ccnc(N)c4Cl)c(N)n3)CC2)C1N: the IC50 is under 0.0316 µM under setting [1]; under 0.0316 µM under setting [2]; under 0.0316 µM under setting [3]; under 0.0316 µM under setting [4]; under 0.0316 µM under setting [5]. The viability, T/C runs as follows: under setting [7], 38.4%; under setting [8], 30.5%; under setting [9], 32.1%; under setting [10], 31.2%; under setting [31], 6.63%; (second compound 0.1 µM, first compound 10 µM) 2.32%. Also, the viability, T/C under setting [12] was 32.1%; the viability, T/C under setting [13] is 24.3%; the viability, T/C under setting [14] is 29%; the viability, T/C under setting [15] is 34.3%; the viability, T/C under setting [32] is 5.9%; the viability, T/C (second compound 0.316 µM, first compound 10 µM) is 1.62%. Moreover, the viability, T/C was 29% under setting [17]; 26.9% under setting [18]; 26.1% under setting [19]; 27.3% under setting [20]; 5.85% under setting [33]; 2.94% (second compound 1 µM, first compound 10 µM). Further, the viability, T/C is 28.4% under setting [22]; 24.7% under setting [23]; 23.7% under setting [24]; 20.8% under setting [25]; 5.87% under setting [34]; 1.91% (second compound 3.16 µM, first compound 10 µM). The viability, T/C was 20.1% under setting [27]; 23.8% under setting [28]; 23.2% under setting [29]; 19.2% under setting [30]; 3.98% under setting [35]; 0.4% (second compound 10 µM, first compound 10 µM).
`CC1COCCN1c1cc(-c2ccnn2C)c2ccnc(-c3ccn[nH]3)c2n1` (stereo unspecified) + C=CC(=O)N1CCN(c2nc(=O)n(-c3c(C)ccnc3C(C)C)c3nc(-c4c(O)cccc4F)c(F)cc23)C(C)C1: the IC50 was under 0.01 µM under setting [1]; under 0.01 µM under setting [2]; under 0.01 µM under setting [3]; under 0.01 µM under setting [4]; under 0.01 µM under setting [5]. Besides, the viability, T/C reads like this: under setting [6], 23.9%; under setting [7], 20.3%; under setting [8], 18.5%; under setting [9], 16.3%; under setting [10], 13.1%; under setting [31], 10.7%. The viability, T/C by setting is: under setting [11], 23.6%; under setting [12], 23.2%; under setting [13], 19.2%; under setting [14], 19.1%; under setting [15], 13.5%; under setting [32], 10.5%. For the same molecule, the viability, T/C is, setting by setting: under setting [16], 25.1%; under setting [17], 24.6%; under setting [18], 21%; under setting [19], 17.5%; under setting [20], 14.1%; under setting [33], 14%. In addition, the viability, T/C under setting [21] is 26.2%; the viability, T/C under setting [22] is 27.1%; the viability, T/C under setting [23] is 24.2%; the viability, T/C under setting [24] was 21.2%; the viability, T/C under setting [25] is 20.1%; the viability, T/C under setting [34] is 16.5%. The viability, T/C under setting [26] is 33.3%; the viability, T/C under setting [27] was 34.8%; the viability, T/C under setting [28] was 31.9%; the viability, T/C under setting [29] is 28.4%; the viability, T/C under setting [30] is 25.4%; the viability, T/C under setting [35] was 30.5%.
With `Cn1ncnc1[C@H]1c2n[nH]c(=O)c3cc(F)cc(c23)N[C@@H]1c1ccc(F)cc1`, the viability, T/C (compound 0.000316 µM) was 98.9% [middle of 5 runs]; the viability, T/C (compound 0.001 µM) was 104% [middle of 5 runs]; the viability, T/C (compound 0.00316 µM) is 91.5% [middle of 5 runs]; the viability, T/C (compound 0.01 µM) is 93.2% [middle of 5 runs]. Further, the IC50 (curve of compound) was over 0.1 µM.
As to `COc1cc2nccc(Oc3ccc(NC(=O)C4(C(=O)Nc5ccc(F)cc5)CC4)cc3)c2cc1OC`, the viability, T/C reads like this: (compound 0.0316 µM) 97.7% [middle of 5 runs]; (compound 0.316 µM) 83.8% [middle of 5 runs]. Also, the result (compound 10 µM) was inactive. Also, the IC50 (curve of compound) was > 10 µM and 2.76 µM.
